#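 In this assay, cells in 96-well plates receive the compound at five concentrations for 48 hours. Endpoints are linearly interpolated between the surrounding concentrations. TGI: total growth inhibition.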 Where a SMILES comes first, the peptide text is derived from it. Bridges are numbered along the chain shown (N, C = ends). [ ]: non-standard residue; d: D form. The star is where a group is joined. ξ: configuration not given here. X26 = O=C(/C=C/C=C/C=C/C=C/C=C/C(=O)*)NC1=C(O)CCC1=O; Pro(4R-Me) = C[C@H]1CN[C@H](C(=O)O)C1; NMeA = CN[C@@H](C)C(=O)O; ξF = NC(Cc1ccccc1)C(=O)O; ξA = CC(N)C(=O)O
# Columns and labels:
# Assay in all cases: NCI-60 cell line screen, 48 h
# IGROV1 ovarian = system: IGROV1 ovarian
# HOP-62 NSCLC = system: HOP-62 NSCLC
# SK-MEL-2 melanoma = system: SK-MEL-2 melanoma
# OVCAR-5 ovarian = system: OVCAR-5 ovarian
# SK-MEL-28 melanoma = system: SK-MEL-28 melanoma
# CCRF-CEM leukemia = system: CCRF-CEM leukemia
# A549 NSCLC = system: A549 NSCLC
# HL-60(TB) leukemia = system: HL-60(TB) leukemia
# RPMI-8226 leukemia = system: RPMI-8226 leukemia
# K-562 leukemia = system: K-562 leukemia
# SF-295 CNS = system: SF-295 CNS
# RXF 393 renal = system: RXF 393 renal
# A498 renal = system: A498 renal
# MDA-MB-231 breast = system: MDA-MB-231 breast
# KM12 colon = system: KM12 colon
# SN12C renal = system: SN12C renal
# MALME-3M melanoma = system: MALME-3M melanoma
# NCI/ADR-RES ovarian = system: NCI/ADR-RES ovarian
# LOX IMVI melanoma = system: LOX IMVI melanoma
# HS 578T breast = system: HS 578T breast
# EKVX NSCLC = system: EKVX NSCLC
# UO-31 renal = system: UO-31 renal
# HCT-116 colon = system: HCT-116 colon
# 786-0 renal = system: 786-0 renal
# ACHN renal = system: ACHN renal
# MCF7 breast = system: MCF7 breast
# SK-MEL-5 melanoma = system: SK-MEL-5 melanoma
# HOP-92 NSCLC = system: HOP-92 NSCLC
# T-47D breast = system: T-47D breast
# SK-OV-3 ovarian = system: SK-OV-3 ovarian
# SR leukemia = system: SR leukemia
# M14 melanoma = system: M14 melanoma
# MDA-MB-435 = system: MDA-MB-435
# OVCAR-3 ovarian = system: OVCAR-3 ovarian
# UACC-62 melanoma = system: UACC-62 melanoma
# U251 CNS = system: U251 CNS
# HT29 colon = system: HT29 colon
# BT-549 breast = system: BT-549 breast
# DU-145 prostate = system: DU-145 prostate
# COLO 205 colon = system: COLO 205 colon
# NCI-H522 lung = system: NCI-H522 lung
# PC-3 prostate = system: PC-3 prostate
# UACC-257 melanoma = system: UACC-257 melanoma
# TK-10 renal = system: TK-10 renal
# SF-268 CNS = system: SF-268 CNS
# HCT-15 colon = system: HCT-15 colon
# SF-539 CNS = system: SF-539 CNS
# SNB-19 CNS = system: SNB-19 CNS
# OVCAR-4 ovarian = system: OVCAR-4 ovarian
# MDA-N = system: MDA-N
# HCC-2998 colon = system: HCC-2998 colon
# NCI-H460 lung = system: NCI-H460 lung
# SNB-75 CNS = system: SNB-75 CNS
# NCI-H23 lung = system: NCI-H23 lung
# CAKI-1 renal = system: CAKI-1 renal
# SW-620 colon = system: SW-620 colon
# MOLT-4 leukemia = system: MOLT-4 leukemia
# NCI-H226 lung = system: NCI-H226 lung
# OVCAR-8 ovarian = system: OVCAR-8 ovarian
compound,measurement,setting,value
CC1NC(=O)[C@H](C)N(C)C(=O)[C@@H]2CCCN2C(=O)[C@@H](NC(=O)C(Cc2ccccc2)NC(=O)/C=C/C=C/C=C/C=C/C=C/C(=O)NC2=C(O)CCC2=O)COC(=O)[C@@H]2C[C@@H](C)CN2C1=O (stereo partly drawn) (X26-[ξF]SP[NMeA][ξA][Pro(4R-Me)]; ester 2-C),TGI,IGROV1 ovarian,> 100000 nM
same,TGI,HOP-62 NSCLC,> 100000 nM
same,TGI,SK-MEL-2 melanoma,> 100000 nM
same,TGI,OVCAR-5 ovarian,> 100000 nM
same,TGI,SK-MEL-28 melanoma,> 100000 nM
same,TGI,CCRF-CEM leukemia,> 100000 nM
same,TGI,A549 NSCLC,> 100000 nM
same,TGI,HL-60(TB) leukemia,> 100000 nM
same,TGI,RPMI-8226 leukemia,> 100000 nM
same,TGI,K-562 leukemia,> 100000 nM
same,TGI,SF-295 CNS,> 100000 nM
same,TGI,RXF 393 renal,> 100000 nM
same,TGI,A498 renal,> 100000 nM
same,TGI,MDA-MB-231 breast,> 100000 nM
same,TGI,KM12 colon,> 100000 nM
same,TGI,SN12C renal,> 100000 nM
same,TGI,MALME-3M melanoma,> 100000 nM
same,TGI,NCI/ADR-RES ovarian,> 100000 nM
same,TGI,LOX IMVI melanoma,> 100000 nM
same,TGI,HS 578T breast,> 100000 nM
same,TGI,EKVX NSCLC,> 100000 nM
same,TGI,UO-31 renal,> 100000 nM
same,TGI,HCT-116 colon,> 100000 nM
same,TGI,786-0 renal,> 100000 nM
same,TGI,ACHN renal,> 100000 nM
same,TGI,MCF7 breast,> 100000 nM
same,TGI,SK-MEL-5 melanoma,> 100000 nM
same,TGI,HOP-92 NSCLC,> 100000 nM
same,TGI,T-47D breast,> 100000 nM
same,TGI,SK-OV-3 ovarian,> 100000 nM
same,TGI,SR leukemia,> 100000 nM
same,TGI,M14 melanoma,> 100000 nM
same,TGI,MDA-MB-435,> 100000 nM
same,TGI,OVCAR-3 ovarian,> 100000 nM
same,TGI,UACC-62 melanoma,> 100000 nM
same,TGI,U251 CNS,> 100000 nM
same,TGI,HT29 colon,> 100000 nM
same,TGI,BT-549 breast,> 100000 nM
same,TGI,DU-145 prostate,> 100000 nM
same,TGI,COLO 205 colon,> 100000 nM
same,TGI,NCI-H522 lung,> 100000 nM
same,TGI,PC-3 prostate,> 100000 nM
same,TGI,UACC-257 melanoma,> 100000 nM
same,TGI,TK-10 renal,> 100000 nM
same,TGI,SF-268 CNS,> 100000 nM
same,TGI,HCT-15 colon,> 100000 nM
same,TGI,SF-539 CNS,> 100000 nM
same,TGI,SNB-19 CNS,> 100000 nM
same,TGI,OVCAR-4 ovarian,> 100000 nM
same,TGI,MDA-N,> 100000 nM
same,TGI,HCC-2998 colon,> 100000 nM
same,TGI,NCI-H460 lung,> 100000 nM
same,TGI,SNB-75 CNS,> 100000 nM
same,TGI,NCI-H23 lung,> 100000 nM
same,TGI,CAKI-1 renal,> 100000 nM
same,TGI,SW-620 colon,> 100000 nM
CN(C)CCn1c(=O)c2ccc(NCCCN(C)CCCNc3ccc4c(=O)n(CCN(C)C)c(=O)n5c6ccccc6c(=O)c3c45)c3c(=O)c4ccccc4n(c1=O)c23,TGI,IGROV1 ovarian,194 nM
same,TGI,HOP-62 NSCLC,838 nM
same,TGI,SK-MEL-2 melanoma,2440 nM
same,TGI,OVCAR-5 ovarian,3560 nM
same,TGI,SK-MEL-28 melanoma,1940 nM
same,TGI,CCRF-CEM leukemia,81.9 nM
same,TGI,A549 NSCLC,472 nM
same,TGI,HL-60(TB) leukemia,1060 nM
same,TGI,RPMI-8226 leukemia,231 nM
same,TGI,K-562 leukemia,1300 nM
same,TGI,SF-295 CNS,1540 nM
same,TGI,RXF 393 renal,362 nM
same,TGI,A498 renal,2130 nM
same,TGI,MDA-MB-231 breast,540 nM
same,TGI,KM12 colon,590 nM
same,TGI,SN12C renal,1180 nM
same,TGI,MALME-3M melanoma,2330 nM
same,TGI,NCI/ADR-RES ovarian,1480 nM
same,TGI,LOX IMVI melanoma,164 nM
same,TGI,HS 578T breast,1760 nM
same,TGI,EKVX NSCLC,1100 nM
same,TGI,UO-31 renal,530 nM
same,TGI,HCT-116 colon,1030 nM
same,TGI,786-0 renal,1080 nM
same,TGI,ACHN renal,949 nM
same,TGI,MCF7 breast,904 nM
same,TGI,MOLT-4 leukemia,85.3 nM
same,TGI,SK-MEL-5 melanoma,1170 nM
same,TGI,HOP-92 NSCLC,735 nM
same,TGI,T-47D breast,8330 nM
same,TGI,SK-OV-3 ovarian,2430 nM
same,TGI,SR leukemia,504 nM
same,TGI,M14 melanoma,1900 nM
same,TGI,MDA-MB-435,127 nM
same,TGI,OVCAR-3 ovarian,1210 nM
same,TGI,UACC-62 melanoma,1580 nM
same,TGI,U251 CNS,1060 nM
same,TGI,HT29 colon,1060 nM
same,TGI,BT-549 breast,1750 nM
same,TGI,DU-145 prostate,533 nM
same,TGI,COLO 205 colon,376 nM
same,TGI,NCI-H522 lung,517 nM
same,TGI,PC-3 prostate,654 nM
same,TGI,UACC-257 melanoma,1820 nM
same,TGI,NCI-H226 lung,535 nM
same,TGI,TK-10 renal,1480 nM
same,TGI,SF-268 CNS,2110 nM
same,TGI,HCT-15 colon,421 nM
same,TGI,SF-539 CNS,1780 nM
same,TGI,SNB-19 CNS,1330 nM
same,TGI,MDA-N,1600 nM
same,TGI,HCC-2998 colon,224 nM
same,TGI,NCI-H460 lung,139 nM
same,TGI,SNB-75 CNS,334 nM
same,TGI,NCI-H23 lung,546 nM
same,TGI,CAKI-1 renal,426 nM
same,TGI,OVCAR-8 ovarian,490 nM
same,TGI,SW-620 colon,231 nM
